Paper PMC10460054, “Multiplex Quantitative Analysis of 9 Compounds of Scutellaria baicalensis Georgi in the Plasma of Respiratory Syncytial Virus-Infected Mice Based on HPLC-MS/MS and Pharmacodynamic Effect Correlation Analysis” (Molecules, 2023)

Tests used:
[1] = HPLC-MS/MS quantification of 9 compounds in plasma of RSV-infected mice after Scutellaria baicalensis Georgi administration; format: in vivo, BALB/c mice; parameters: drug-containing plasma content: unit not given here
Description: The study employed a Vanquish high-performance liquid chromatograph for chromatographic separation, with a HALO C18 column (2.1 × 100 mm, 2.7 μm) as the chromatographic column.
Mass spectrometry was performed using a quadrupole-electrostatic field orbitrap desktop mass spectrometer equipped with an electrospray ion source (ESI). The ESI parameters were set as follows: the pyrolysis voltage was 3.0 kV, the auxiliary gas flow rate was 10 mL/min, the ion transport tube temperature was 350 °C, the auxiliary gas temperature was 350 °C, and the sheath gas flow rate was 45 L/min. Quantitative analysis was performed using the selective ion detection (SIM) mode (Table S1).
Male BALB/c mice, aged 2 weeks and weighing 10–12 g, were chosen for this study. They were acclimatized for 2 days and then randomly assigned to one of five groups: blank (C), model (M), positive control ribavirin (Y1), positive control lianhua qingwen granules (Y2), and Scutellaria baicalensis Georgi administration (H1-H12). Each group consisted of six mice, and their weights were recorded. The mice were pre-administered for 2 days, and on the third day, RSV virus (TCID50 = 10^−6) was inoculated through intranasal infection at a volume of 35 μL per mouse. The blank group was inoculated with normal saline of the same volume. After the inoculation of the RSV virus, the blank and model groups were given distilled water by gavage, while the drug-administered groups were given an aqueous extract of Scutellaria baicalensis Georgi (10 µL/g) once a day for 3 days. The mice were observed daily for their mental status, hair color, diet, and body weight. […] It was then centrifuged at 3000 r/min for 10 min, and the upper layer of plasma was stored at −80℃. Lung tissues were weighed, the lung index was calculated, and the lung tissues were stored in the refrigerator at −80 °C for freezing.
The plasma sample (200 μL) was processed in a 5 mL tube. Subsequently, 10 μL of 5% formic acid and 20 μL of 2 mol/L hydrochloric acid were added, followed by vortexing for 1 min with 10 μL of internal standard solution (100 ng/mL tinidazole). The extraction was completed by adding 2000 μL of acetonitrile solvent and vortexing for 2 min. The mixture was then centrifuged at 12,000 r/min at 4 °C for 10 min, and the supernatant solution was collected in a new centrifuge tube. The supernatant solution was dried by nitrogen at room temperature before being redissolved in 50 μL of 70% acetonitrile solution containing 0.1% formic acid. After vortexing for 1 min, the solution was centrifuged at 12,000 r/min at 4 °C for 10 min, and the resulting supernatant was injected for analysis. The injection volume was 3 μL.
The drug-containing plasma at different time points was subjected to sample treatment. The HPLC-MS/MS analysis method was used to quantitatively detect the 9 compounds in the ion detection (SIM) mode. According to the relative peak area value = index peak area/internal standard peak area, the corresponding concentration value was calculated by substituting the standard curve of each component.

[2] = Stability of 9 compounds in mouse plasma under storage conditions; format: in vitro ADME; conditions: n = 6; for Stability 3-Freeze-Thaw Cycles RE: 3 times repeated freeze-thaw at −80 °C; for Stability Short-Term RE: 12 h at 4 °C; for Stability Long-Term RE: −20 °C for 20 days
[3] = male, BALB/c, mouse, in vivo, 0.083 h
[4] = male, BALB/c, mouse, in vivo, 0.167 h
[5] = male, BALB/c, mouse, in vivo, 0.25 h
[6] = male, BALB/c, mouse, in vivo, 0.5 h
[7] = male, BALB/c, mouse, in vivo, 1 h
[8] = male, BALB/c, mouse, in vivo, 2 h
[9] = male, BALB/c, mouse, in vivo, 4 h
[10] = male, BALB/c, mouse, in vivo, 6 h
[11] = male, BALB/c, mouse, in vivo, 8 h
[12] = male, BALB/c, mouse, in vivo, 10 h
[13] = male, BALB/c, mouse, in vivo, 12 h
[14] = male, BALB/c, mouse, in vivo, 24 h
[15] = high QC (20,000 or 10,000 ng/mL)
[16] = RSV-infected mice after Scutellaria baicalensis Georgi administration, double peak phenomenon
[17] = RSV-infected mice, 0.083 h after last gavage of Scutellaria baicalensis Georgi extract, mean ± SD, n = 6
[18] = RSV-infected mice, 0.167 h after last gavage of Scutellaria baicalensis Georgi extract, mean ± SD, n = 6
[19] = RSV-infected mice, 0.25 h after last gavage of Scutellaria baicalensis Georgi extract, mean ± SD, n = 6
[20] = RSV-infected mice, 0.5 h after last gavage of Scutellaria baicalensis Georgi extract, mean ± SD, n = 6
[21] = RSV-infected mice, 1 h after last gavage of Scutellaria baicalensis Georgi extract, mean ± SD, n = 6
[22] = RSV-infected mice, 2 h after last gavage of Scutellaria baicalensis Georgi extract, mean ± SD, n = 6
[23] = RSV-infected mice, 4 h after last gavage of Scutellaria baicalensis Georgi extract, mean ± SD, n = 6
[24] = RSV-infected mice, 6 h after last gavage of Scutellaria baicalensis Georgi extract, mean ± SD, n = 6
[25] = RSV-infected mice, 8 h after last gavage of Scutellaria baicalensis Georgi extract, mean ± SD, n = 6
[26] = RSV-infected mice, 10 h after last gavage of Scutellaria baicalensis Georgi extract, mean ± SD, n = 6
[27] = RSV-infected mice, 12 h after last gavage of Scutellaria baicalensis Georgi extract, mean ± SD, n = 6
[28] = RSV-infected mice, 24 h after last gavage of Scutellaria baicalensis Georgi extract, mean ± SD, n = 6

| Structure (SMILES) | drug-containing plasma content [1, 3] | drug-containing plasma content [1, 4] | drug-containing plasma content [1, 5] | drug-containing plasma content [1, 6] | drug-containing plasma content [1, 7] | drug-containing plasma content [1, 8] | drug-containing plasma content [1, 9] | drug-containing plasma content [1, 10] | drug-containing plasma content [1, 11] | drug-containing plasma content [1, 12] | drug-containing plasma content [1, 13] | Stability 3-Freeze-Thaw Cycles RE [2, 15] | Stability 3-Freeze-Thaw Cycles RE ([2]; low QC (12.5 or 25.6 ng/mL)) | Stability 3-Freeze-Thaw Cycles RE ([2]; medium QC (320 or 160 ng/mL)) | Stability Short-Term RE [2, 15] | Stability Short-Term RE ([2]; low QC (12.5 or 25.6 ng/mL)) | Stability Short-Term RE ([2]; medium QC (320 or 160 ng/mL)) | Stability Long-Term RE [2, 15] | Stability Long-Term RE ([2]; low QC (12.5 or 25.6 ng/mL)) | Stability Long-Term RE ([2]; medium QC (320 or 160 ng/mL)) | other results |
| --- | --- | --- | --- | --- | --- | --- | --- | --- | --- | --- | --- | --- | --- | --- | --- | --- | --- | --- | --- | --- | --- |
| O=C(O)[C@H]1O[C@@H](Oc2cc(O)c3c(=O)cc(-c4ccc(O)cc4)oc3c2)[C@H](O)[C@@H](O)[C@@H]1O [Apigenin-7-glucuronide] | 4725.60± 214.70 | 6986.86± 153.57 | 4610.60± 192.08 | 4344.98± 173.73 | 1590.11± 125.69 | 2934.42± 221.23 | 1037.07± 106.48 | 9344.98± 327.73 | 2958.20± 207.61 | 896.04± 55.63 | 47.32± 11.82 | 8.37% | −2.43% | −0.72% | 8.60% | −3.20% | −2.08% | 9.80% | −3.16% | −1.48% | time of highest plasma concentration, first peak ([1]; male, BALB/c, mouse, in vivo): 0.167 h; time of highest plasma concentration, second peak ([1]; male, BALB/c, mouse, in vivo): 6 h; drug-containing plasma content [1, 14]: 23.55± 2.60 |
| O=c1cc(-c2ccccc2)oc2cc(O)c(O)c(O)c12 [Baicalein] | 235.76± 21.97 | 573.93± 23.68 | 437.59± 15.17 | 243.84± 16.32 | 208.98± 14.58 | 25.73± 5.59 | 43.00± 8.66 | 792.15± 41.3 | 184.80± 29.24 | 120.93± 15.03 | 9.28± 5.01 | – | – | – | – | – | – | – | – | – | time of highest plasma concentration, first peak [1, 16]: 0.167 h; time of highest plasma concentration, second peak [1, 16]: 6 h; drug-containing plasma content [1, 14]: 1.42± 5.86 |
| O=C(O)[C@H]1O[C@@H](Oc2cc3oc(-c4ccccc4)cc(=O)c3c(O)c2O)[C@H](O)[C@@H](O)[C@@H]1O [Baicalin] | 2434.28± 151.56 | 4607.45± 318.09 | 2031.56± 103.57 | 2696.64± 110.33 | 2474.37± 225.92 | 2620.76± 117.82 | 1587.10± 169.68 | 8607.45± 428.09 | 1856.98± 113.03 | 569.32± 20.22 | 39.89± 7.45 | 7.69% | −7.38% | −2.37% | 5.73% | −9.16% | −5.85% | 5.87% | −8.15% | −5.21% | time of highest plasma concentration, first peak [1, 16]: 0.167 h; time of highest plasma concentration, second peak [1, 16]: 6 h; drug-containing plasma content [1, 14]: 15.44± 5.62 |
| O=c1cc(-c2ccccc2)oc2cc(O)cc(O)c12 [Chrysin] | – | – | – | – | – | – | – | – | – | – | – | −2.47% | −6.42% | −5.15% | −2.74% | −5.59% | −10.49% | −3.86% | −4.52% | −9.37% | drug-containing plasma content [1, 17]: 0; drug-containing plasma content [1, 18]: 0; drug-containing plasma content [1, 19]: 0; drug-containing plasma content [1, 20]: 10.37± 2.12; drug-containing plasma content [1, 21]: 15.38± 4.94; drug-containing plasma content [1, 22]: 21.43± 4.86; drug-containing plasma content [1, 23]: 12.37± 2.12; drug-containing plasma content [1, 24]: 60.64± 2.86; drug-containing plasma content [1, 25]: 0; drug-containing plasma content [1, 26]: 0; drug-containing plasma content [1, 27]: 0; drug-containing plasma content [1, 28]: 0 |
| O=c1cc(-c2ccccc2)oc2c(O)c(O)cc(O)c12 [Norwogonin] | – | – | – | – | – | – | – | – | – | – | – | 1.97% | −6.11% | 7.06% | −1.39% | −2.17% | 0.74% | 0.11% | −8.96% | 3.74% | time of highest plasma concentration, first peak [1, 16]: 0.167 h; time of highest plasma concentration, second peak [1, 16]: 6 h; drug-containing plasma content [1, 17]: 28.17± 2.96; drug-containing plasma content [1, 18]: 94.18± 5.68; drug-containing plasma content [1, 19]: 23.48± 0.05; drug-containing plasma content [1, 20]: 13.88± 4.73; drug-containing plasma content [1, 21]: 12.42± 7.14; drug-containing plasma content [1, 22]: 0; drug-containing plasma content [1, 23]: 14.29± 9.94; drug-containing plasma content [1, 24]: 113.88± 4.73; drug-containing plasma content [1, 25]: 21.94± 0.43; drug-containing plasma content [1, 26]: 16.07± 3.80; drug-containing plasma content [1, 27]: 0; drug-containing plasma content [1, 28]: 0 |
